Test results reported in patent US20070049592A1, “Bis-aryl urea compounds and methods of use” (priority 2005, published 2007).

tested on: Human Umbilical Vein Endothelial cells; assay: HUVEC proliferation assay (VEGF); assay type: cell-based; settings: VEGF-stimulated HUVEC proliferation
Procedure: Human Umbilical Vein Endothelial cells are purchased from Clonetics, Inc., as cryopreserved cells harvested from a pool of donors. These cells, at passage 1, are thawed and expanded in EBM-2 complete medium, until passage 2 or 3. The cells are trypsinized, washed in DMEM+10% FBS+antibiotics, and spun at 1000 rpm for 10 min. Prior to centrifugation of the cells, a small amount is collected for a cell count. After centrifugation, the medium is discarded, and the cells are resuspended in the appropriate volume of DMEM+10% FBS+antibiotics to achieve a concentration of 3×10^5 cells/mL. Another cell count is performed to confirm the cell concentration. The cells are diluted to 3×10^4 cells/mL in DMEM+10% FBS+antibiotics, and 100 μL of cells are added to a 96-well plate. The cells are incubated at 37° C. for 22 h.
Prior to the completion of the incubation period, compound dilutions are prepared. Five-point, five-fold serial dilutions are prepared in DMSO, at concentrations 400-fold greater than the final concentrations desired. 2.5 μL of each compound dilution are diluted further in a total of 1 mL DMEM+10% FBS+antibiotics (400× dilution). Medium containing 0.25% DMSO is also prepared for the 0 μM compound sample. At the 22 h timepoint, the medium is removed from the cells, and 100 μL of each compound dilution is added. The cells are incubated at 37° C. for 2-3 h.
During the compound pre-incubation period, the growth factors are diluted to the appropriate concentrations. Solutions of DMEM+10% FBS+antibiotics, containing either VEGF or bFGF at the following concentrations: 50, 10, 2, 0.4, 0.08, and 0 ng/mL are prepared. For the compound-treated cells, solutions of VEGF at 550 ng/mL or bFGF at 220 ng/mL for 50 ng/mL or 20 ng/mL final concentrations, respectively, are prepared since 10 μL of each will be added to the cells (110 μL final volume). At the appropriate time after adding the compounds, the growth factors are added. VEGF is added to one set of plates, while bFGF is added to another set of plates. For the growth factor control curves, the media on wells B4-G6 of plates 1 and 2 are replaced with media containing VEGF or bFGF at the varying concentrations (50-0 ng/mL). The cells are incubated at 37° C. for an additional 72 h.
At the completion of the 72 h incubation period, the medium is removed, and the cells are washed twice with PBS. After the second wash with PBS, the plates are tapped gently to remove excess PBS, and the cells are placed at −70° C. for at least 30 min. The cells are thawed and analyzed using the CyQuant fluorescent dye (Molecular Probes C-7026), following the manufacturer's recommendations. The plates are read on a Victor/Wallac 1420 workstation at 485 nm/530 nm (excitation/emission). Raw data is collected and analyzed using a 4-parameter fit equation in XLFit. IC50 values are then determined.

SMILES | IC50 [µM]
CNc1ncnc(N(C)C(=O)Nc2cc(C(=O)Nc3cccc(N(C)C)c3)ccc2C)n1 [Example 28] | < 5
CNc1ncnc(N(C)C(=O)Nc2cc(C(=O)Nc3ccc(Cl)cc3)ccc2C)n1 [Example 47, N-(4-chlorophenyl)-4-methyl-3-(((methyl(4-(methylamino)-1,3,5-triazin-2-yl)amino)carbonyl)amino) benzamide] | < 5
CNc1ncnc(N(C)C(=O)Nc2cc(C(=O)Nc3ccc4sc(C)nc4c3)ccc2C)n1 [Example 35, 4-methyl-N-(2-methyl-1,3-benzothiazol-5-yl)-3-(((methyl(4-(methylamino)-1,3,5-triazin-2-yl)amino)carbonyl)amino)benzamide] | < 5
CNc1ncnc(N(C)C(=O)Nc2cc(C(=O)Nc3cccc(-c4ccccc4)c3)ccc2C)n1 [Example 39, N-(1,1′-biphenyl-3-yl)-4-methyl-3-(((methyl(4-(methylamino)-1,3,5-triazin-2-yl)amino)carbonyl)amino)benzamide] | < 5
CNc1cc(N(C)C(=O)Nc2cc(C(=O)Nc3ccc(C(C)C)c(C)c3)ccc2C)ncn1 [Example 19] | < 5
CNc1ncnc(N(C)C(=O)Nc2cc(C(=O)NCc3ccccc3)ccc2C)n1 [Example 49, 4-methyl-3-(((methyl(4-(methylamino)-1,3,5-triazin-2-yl)amino)carbonyl)amino)-N-(phenylmethyl) benzamide] | < 5
CNc1cc(N(C)C(=O)Nc2cc(C(=O)Nc3ccc(Cl)cc3)ccc2C)ncn1 [Example 40, N-(4-chlorophenyl)-4-methyl-3-(((methyl(6-(methylamino)-4-pyrimidinyl)amino)carbonyl)amino)benzamide] | < 5
CNc1nccc(N(CCCN2CCOCC2)C(=O)Nc2cc(C(=O)Nc3cc(C4CCCCC4)ccc3OC)ccc2C)n1 [Example 50, N-(5-cyclohexyl-2-(methyloxy)phenyl)-4-methyl-3-((((2-(methylamino)-4-pyrimidinyl)(3-(4-morpholinyl)propyl)amino)carbonyl)amino) benzamide] | < 5
CNc1cc(N(C)C(=O)Nc2cc(C(=O)Nc3cc(C4CCCCC4)ccc3OC)ccc2C)ncn1 [Example 43, N-(5-cyclohexyl-2-(methyloxy)phenyl)-4-methyl-3-(((methyl(6-(methylamino)-4-pyrimidinyl)amino)carbonyl)amino)benzamide] | < 5
CNc1cc(N(C)C(=O)Nc2cc(C(=O)Nc3ccccc3)ccc2C)ncn1 [Example 41, 4-methyl-3-(((methyl(6-(methylamino)-4-pyrimidinyl)amino)carbonyl)amino)-N-phenylbenzamide] | < 5
CNc1ncnc(N(C)C(=O)Nc2cc(C(=O)Nc3ccc(C(C)(C)C)cc3)ccc2C)n1 [Example 27, N-(4-1,1-(dimethylethyl)phenyl)-4-methyl-3-(((methyl(4-(methylamino)-1,3,5-triazin-2-yl)amino)carbonyl)amino)benzamide] | < 5
CNc1ncnc(N(C)C(=O)Nc2cc(C(=O)Nc3ccc(C(C)C)c(C)c3)ccc2C)n1 [Example 38, 4-methyl-3-(((methyl(4-(methylamino)-1,3,5-triazin-2-yl)amino)carbonyl)amino)-N-(3-methyl-4-(1-methylethyl)phenyl)benzamide] | < 5
CNc1ncnc(N(C)C(=O)Nc2cc(C(=O)Nc3cc(OC)cc(C(F)(F)F)c3)ccc2C)n1 [Example 36, 4-methyl-3-(((methyl(4-(methylamino)-1,3,5-triazin-2-yl)amino)carbonyl)amino)-N-(3-(methyloxy)-5-(trifluoromethyl)phenyl)benzamide] | < 5
CNc1cc(N(C)C(=O)Nc2cc(C(=O)Nc3cccc(N(C)C)c3)ccc2C)ncn1 [Example 26, N-(3-(dimethylamino)phenyl)-4-methyl-3-((methyl(6-(methylamino)-4-pyrimidinyl)amino)carbonylamino)benzamide] | < 5
CNc1ncnc(N(C)C(=O)Nc2cc(C(=O)Nc3cccc(C(F)(F)F)c3C)ccc2C)n1 [Example 37, 4-methyl-3-(((methyl(4-(methylamino)-1,3,5-triazin-2-yl)amino)carbonyl)amino)-N-(2-methyl-3-(trifluoromethyl)phenyl)benzamide] | < 5
CNc1cc(N(C)C(=O)Nc2cc(C(=O)Nc3cc(C(F)(F)F)ccc3OCCN3CCCC3)ccc2C)ncn1 [Example 34, 4-methyl-3-(((methyl(6-(methylamino)-4-pyrimidinyl)amino)carbonyl)amino)-N-(2-((2-(1-pyrrolidinyl)ethyl)oxy)-5-(trifluoromethyl)phenyl)benzamide] | < 5
CNc1cc(N(C)C(=O)Nc2cc(C(=O)Nc3ccc4sc(C)nc4c3)ccc2C)ncn1 [Example 33, 4-methyl-N-(2-methyl-1,3-benzothiazol-5-yl)-3-(((methyl(6-(methylamino)-4-pyrimidinyl)amino)carbonyl)amino)benzamide] | < 5
CNc1cc(N(C)C(=O)Nc2cc(C(=O)NCc3ccccc3)ccc2C)ncn1 [Example 45, 4-methyl-3-(((methyl(6-(methylamino)-4-pyrimidinyl)amino)carbonyl)amino)-N-(phenylmethyl) benzamide] | < 5
CCCCNC(=O)c1ccc(C)c(NC(=O)N(C)c2ncnc(NC)n2)c1 [Example 48, N-butyl-4-methyl-3-(((methyl(4-(methylamino)-1,3,5-triazin-2-yl)amino)carbonyl)amino)benzamide] | < 5
CNc1nccc(N(CCCN2CCOCC2)C(=O)Nc2cc(C(=O)Nc3cccc(C(C)C)c3)ccc2C)n1 [Example 29, 4-methyl-3-((((2-(methylamino)-4-pyrimidinyl) (3-(4-morpholinyl)propyl)amino)carbonyl)amino)-N-(3-(1-methylethyl)phenyl)benzamide] | < 5
COc1ccc(C2CCCCC2)cc1NC(=O)c1ccc(C)c(NC(=O)N(CCCN2CCOCC2)c2ccncn2)c1 [Example 46, N-(5-cyclohexyl-2-(methyloxy)phenyl)-4-methyl-3-((((3-(4-morpholinyl)propyl)(4-pyrimidinyl)amino)carbonyl)amino)benzamide] | < 5
CNc1ncnc(N(C)C(=O)Nc2cc(C(=O)Nc3ccccc3)ccc2C)n1 [Example 44, 4-methyl-3-(((methyl(4-(methylamino)-1,3,5-triazon-2-yl)amino)carbonyl)amino)-N-phenylbenzamide] | < 5
CNC(=O)c1cc(N(C)C(=O)Nc2cc(C(=O)N3CCCc4ccc(C(F)(F)F)cc43)ccc2C)ccn1 [Example 71, N-methyl-4-(methyl(((2-methyl-5-((7-(trifluoromethyl)-3,4-dihydro-1(2H)-quinolinyl)carbonyl)phenyl)amino)carbonyl)amino)-2-pyridinecarboxamide] | < 5
Cc1ccc(C(=O)Nc2cccc(C(C)C)c2)cc1NC(=O)N(CCCN1CCOCC1)c1ccncn1 [Example 22, 4-methyl-N-(3-(1-methylethyl)phenyl)-3-((((3-(4-morpholinyl)propyl)(4-pyrimidinyl)amino)carbonyl)amino)benzamide] | < 5
CNc1cc(N(C)C(=O)Nc2cc(C(=O)Nc3ccc4c(c3)N(C(C)=O)CC4(C)C)ccc2C)ncn1 [Example 21, N-(1-acetyl-3,3-dimethyl-2,3-dihydro-1H-indol-6-yl)-4-methyl-3-(((methyl(6-(methylamino)-4-pyrimidinyl)amino)carbonyl)amino)benzamide] | < 5
CCCCNC(=O)c1ccc(C)c(NC(=O)N(C)c2cc(NC)ncn2)c1 [Example 42, N-butyl-4-methyl-3-(((methyl(6-(methylamino)-4-pyrimidinyl)amino)carbonyl)amino)benzamide] | < 5
